Experimental data as given in PubChem BioAssay (NCI).
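Compound exposure: 48 hours, 5 concentrations, 96-well plates. At the GI50, growth is halved. TGI: total growth inhibition.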

Columns and labels:
Assay in all cases: NCI-60 cell line screen, 48 h
[1] = tested on: A549 NSCLC
[2] = tested on: HOP-92 NSCLC
[3] = tested on: M14 melanoma
[4] = tested on: MDA-N
[5] = tested on: NCI-H23 lung
[6] = tested on: NCI/ADR-RES ovarian
[7] = tested on: SF-539 CNS
[8] = tested on: T-47D breast
[9] = tested on: UO-31 renal
[10] = tested on: HS 578T breast

| SMILES | TGI [1] | TGI [2] | TGI [3] | TGI [4] | TGI [5] | TGI [6] | TGI [7] | TGI [8] | TGI [9] | TGI [10] | GI50 [2] | GI50 [9] |
| --- | --- | --- | --- | --- | --- | --- | --- | --- | --- | --- | --- | --- |
| NC(=O)CN1C=CCC(C(N)=O)=C1 | > 100 µM | > 100 µM | > 100 µM | > 100 µM | > 100 µM | > 100 µM | > 100 µM | > 100 µM | > 100 µM |  |  |  |
| Cc1c([C@H](C)[C@@H]2NC[C@@H](C)C[C@H]2O)ccc2c1C[C@H]1[C@H]2CC=C2C[C@@H](O)CC[C@@]21C | 47.9 µM | 23.3 µM | 31.4 µM | 31 µM | 37.9 µM | > 100 µM |  | 53.2 µM | 37.5 µM | 66.6 µM |  |  |
| COc1ccccc1NC(=O)CC(=O)NN | > 100 µM | > 100 µM |  | > 100 µM | > 100 µM | > 100 µM | > 100 µM | > 100 µM | > 100 µM | > 100 µM |  |  |
| C=C1CC(C)(c2cccc(Nc3nc4ccccc4c4occc34)c2)OC1=O (stereo not given) | 46.3 µM | 7.29 µM | 7.26 µM | 18.3 µM |  | 26.8 µM | 3.47 µM | 20.5 µM | 5.04 µM | 9.16 µM |  |  |
| O=c1[nH]nc(Cc2ccc(Cl)cc2)n1/N=C/c1ccc([N+](=O)[O-])o1 | > 35.4 µM | > 46.8 µM | 5.68 µM |  | 16.8 µM | > 35.5 µM | 9.39 µM | > 77.6 µM | > 24 µM | 8.24 µM |  |  |
| COc1nc(C#CC2CCCCC2)nc(OC)n1 | 16.4 µM |  | 10.6 µM | 25.2 µM | 8.6 µM | 4.59 µM | 6.31 µM | > 100 µM | 12.2 µM | 17.7 µM |  |  |
| Cc1ncc(COP(=O)(O)O)c(/C=C2\SC(=S)NC2=O)c1O | > 100 µM | > 100 µM | > 100 µM | > 100 µM | > 100 µM | > 100 µM | > 100 µM | > 100 µM | > 100 µM |  |  |  |
| C=C1C(C)C2C(Cc3ccccc3)NC(=O)C23OC(=O)/C=C\CC(=O)CCC(C)C/C=C/C3C1O (stereo not given) | 20.9 µM | 2.1 µM |  |  | 12.5 µM | 33.4 µM | 4.39 µM |  | 2.72 µM |  | 0.345 µM | 0.913 µM |
| [N-]=[N+]=NCC(O)Cn1cnc2c(NC(=O)c3ccccc3)ncnc21 (stereo not given) | > 100 µM | > 100 µM | > 100 µM |  | > 100 µM |  | > 100 µM |  | > 100 µM |  |  |  |
| CC(=O)C(C)(C)CCC(C)(C)C(C)=O | > 100 µM |  | > 100 µM | > 100 µM | > 100 µM | > 100 µM | > 100 µM | > 100 µM | > 100 µM | > 100 µM |  |  |
| C#CCOC(=O)c1ccc(OC(C)=O)cc1 |  | > 100 µM | > 100 µM | > 100 µM | > 100 µM | > 100 µM | > 100 µM | > 100 µM | > 100 µM | > 100 µM |  |  |
